Data on one compound can be found in US7683061B2, “Triazine dimers for the treatment of autoimmune diseases” (ProMetic BioSciences Inc., priority 2003, dated 2010).

Usually inhibition stands for the drop in the measured response relative to a control, in per cent.

The test system of experiment [1] is TNFα-induced apoptosis, WEHI-13VAR cells. Put plainly: TNFα induced apoptosis in WEHI-13VAR cells (MTT). Type of experiment: cell-based, murine. Conditions: Mus musculus. In short, it runs like this:
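WEHI-13VAR cells (2×10^4) were adhered overnight, then exposed to 0.04 nM TNFα plus 1 μg/mL actinomycin D, with or without compound, for 16–24 h at 37 °C. Viability was read by MTT reduction (4 h) with formazan absorbance at 570 nm, where a lower OD indicates apoptosis.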

In another experiment the test system is NZBxNZW mice. Put plainly: SLE-glomerulonephritis in NZBxNZW mice. Type of experiment: in vivo. From the text: New Zealand mice of the F1 hybrid cross NZBxNZW develop most of the autoimmune abnormalities seen in human SLE and die from SLE-like immune complex (IC)-mediated glomerulonephritis. The mice develop high titers of anti-DNA (double-strand and single-strand) and nuclear extract (NE) antibodies, as well as SLE-related clinical manifestations including leukopenia, thrombocytopenia, proteinuria and glomerulonephritis. These mice develop anti-DNA antibodies after the age of 3 months, with a peak of anti-DNA antibody response occurring at 7 months. Subsequently, the serum concentration of anti-DNA antibodies declines, presumably as a consequence of progressive uremia. The first serological manifestations of the disease occurs at about 150 days (5 months). Their survival is evaluated at approximately 250 days.
FIG. 2 illustrates the effect of compound 1 on the mortality of the NZBxNZW mice. Intravenous administration of compound or vehicle was undertaken once a week from week 18 to week 37. Treatment ceased for 11 weeks and was restarted at week 48 for the control and compound 1 groups. […] It also delays the appearance of symptoms and mortality up to week 45. FIG. 3 illustrates the proteinuria at week 48 to 51.

The mark [2] stands for this setting: weekly intravenous, week 48 to week 52.

SMILES strings stand for the structures.

Consider `Oc1ccc(CCNc2nc(NCCNc3nc(NCCc4ccc(O)cc4)nc(Nc4ccccc4)n3)nc(Nc3ccccc3)n2)cc1` [Compound 1], for which the inhibition at 10 µM in experiment [1] (1 × 10^−5M) turned out to be 36.8%. Also, the inhibition at 20 µM in experiment [1] (2 × 10^−5M) amounted to 17.7%. Further, the inhibition at 40 µM in experiment [1] (4 × 10^−5M) is -3.8%. The inhibition at 5 µM in experiment [1] (5 × 10^−6M) is 14.3%. In addition, the “delay of appearance of symptoms and mortality” value in the experiment with NZBxNZW mice (intravenous once a week from week 18 to week 37) was ≤ 45 week. In addition, the “mortality of NZBxNZW mice” value with NZBxNZW mice (intravenous once a week from week 18 to week 37, at week 37) is recorded as “reduces the mortality”. Moreover, the extended survival result in the experiment on NZBxNZW mice (second SLE study, 65 weeks for control) is “up to 89 weeks”. Moreover, in the experiment with NZBxNZW mice (week 48 to 51, after 11 weeks without treatment), the “proteinuria: amount of protein greater than 5 g/liter” value is given as “greater than the control”. In the experiment on NZBxNZW mice (setting [2]), the “protein concentration (5 g/liter) in urine compared to the vehicle” value was “decrease” and the “trace amount of protein in urine (improvement in kidney filtration)” value was “increase”.
